The structures appear in SMILES notation. Values after ≈ are worked out from the molar mass of the structure shown. Where two headings read alike, the source gives them in different places.

The nature of series [1]: Test for solubility in water. It counts as physicochemical. The settings on record: for solubility: water, thermodynamic from solid. The procedure: The experiments herein can measure the dissolution profile in water of the compounds according to the present invention.
To a 25 ml volumetric flask, 25 mg everolimus was added, and diluted with acetonitrile to volume. The mixture was shaken till all the solid dissolved, obtaining 1 mg/mL everolimus solution in acetonitrile.
1 mg/mL everolimus solution in acetonitrile was added to a 10 ml volumetric flask, and was diluted with acetonitrile by 2 times, 10 times, 100 times and 1000 times, so as to obtain everolimus solutions in acetonitrile with a concentration of 0.5 mg/mL, 0.1 mg/mL, 0.01 mg/mL and 0.001 mg/mL, respectively.
Each of the three mixtures was shaken till the solid in the volumetric flask stopped to dissolve. Before analyzed by HPLC, 1 mL of each solution was filtrated via a 0.22 μm filter. The solubility of the compounds was calculated from the standard curve using the peak area of the main peak obtained.
Based on the same study method, comparisons of the solubility between sirolimus/temsirolimus and the compounds modified by glutathione are carried out, respectively.

The test system of series [2] is human breast cancer cell MDA-MB-435. The experiment in a line: In vitro activity assay, growth of MDA-MB-435. It counts as cell-based. The settings on record: 48 h. The text has this:
(§1) The anti-tumor activity and toxicity of the compounds according to the present invention can be assayed through standard operational procedures of pharmacological experiment. The experiments carried out herein can test the inhibitory effect of the compounds according to the present invention on the growth of human liver cancer cell HepG2, lung cancer cell NCI460, prostate cancer cell DU145, prostate cancer cell PC3, and human breast cancer cell MDA-MB-435. The operational procedure used is briefly described below by taking the inhibitory activity assay against human liver cancer cell HepG2 as an example.
(§2) The operational procedure for the assay is as follows:
(§3) 1. Cells after being trypsinized were inoculated in 96-well plates at a concentration of 10^4 cells/well, and allowed to grow in a medium with a final volume of 200 μL. The 96-well plates after inoculation are allowed to stand for 24 hours at 37° C., in order to allow the cells to adhere to the surface of the wells.
(§4) 2. The medium was removed by carefully pipetting without disturbing the cell monolayer. 200 μL Fresh medium was added into each well. It is arranged to make it possible to collect samples from enough wells to run the experiments in triplicate.
(§5) 3. The compounds to be tested according to the present invention were dissolved into 10 μL phosphate buffered solution (PBS) and incubated for 48 h at 37° C.
(§6) 4. In the last 6 h of incubation, cells in each well of the 96-well plates were labeled by 1 microcurie T thymidine (New England Nuclear thymidine), by adding 10 μL PBS containing 1 microcurie T thymidine (which was added into the PBS on the day of collecting the samples for test). The 96-well plates were then returned to the incubator and incubated for the last 6 h.
(§7) 5. Without disturbing the cell monolayer, the radioactive medium was removed by pipetting. Then 50 μL of BRL 10×trypsin was added to each well, followed by incubation at 37° C. for 10 minutes or until the cell monolayer was detached from the bottom (or the wall) of each well. Samples were collected on glass-fiber diskettes using a Skatron 96-well cell harvester. Cells depositing on the glass-fiber diskettes were counted in a Wallac Betaplate counter.

The subject of series [3] is human liver cancer cell HepG2. The experiment in a line: In vitro activity assay, growth of HepG2 (thymidine incorporation). The settings on record: 48 h. It counts as cell-based.
Excerpt: as §1
Human liver cancer cell HepG2 grew in the follow medium:
Preparation of the growth medium: BRL minimum essential medium with Earle Salts (500 mL), with the addition of the following agents:
as §2, §3, §4, §5, §6, §7
In general terms: Uptake of a labelled nucleoside into DNA is a usual measure of proliferation.

The test system of series [4] is lung cancer cell NCI460. The series is described as follows: In vitro activity assay, growth of NCI460. It counts as cell-based. The settings on record: NCI-460, 48 h.
Excerpt: as §1, §2, §3, §4, §5, §6, §7

The subject of series [5] is prostate cancer cell PC3. The series is described as follows: In vitro activity assay, growth of PC3. The settings on record: 48 h. It counts as cell-based.
Excerpt: as §1, §2, §3, §4, §5, §6, §7

Series [6] has as its system prostate cancer cell DU145. The series is described as follows: In vitro activity assay, growth of DU145. It counts as cell-based. The settings on record: Homo sapiens; DU-145; 48 h.
Excerpt: as §1, §2, §3, §4, §5, §6, §7

Regarding `CO[C@H]1C[C@@H]2CC[C@@H](C)[C@@](O)(O2)C(=O)C(=O)N2CCCC[C@H]2C(=O)OC([C@H](C)C[C@@H]2CC[C@@H](OC(=O)C(C)(CO)COC(=O)CSC[C@H](NC(=O)CC[C@H](N)C(=O)O)C(=O)NCC(=O)O)[C@H](OC)C2)CC(=O)[C@H](C)/C=C(\C)[C@@H](O)[C@@H](OC)C(=O)[C@H](C)C[C@@H](C)\C=C/C=C/C=C/1C` (stereo partly shown) [Compound I-5], the “increase of solubility in water as compared with temsirolimus” value in series [1] is “at least 580 times”. Further, the solubility in series [1] is 580 µg/mL (≈ 421 µM). Moreover, the IC50 turned out to be 70.761 ± 0.009 µM in series [2]; 50.213 ± 0.01 µM in series [3]; 80.53 ± 0.013 µM in series [4]; 38.396 ± 0.008 µM in series [5]; 60.813 ± 0.011 µM in series [6].
`CO[C@H]1C[C@@H]2CC[C@@H](C)[C@@](O)(O2)C(=O)C(=O)N2CCCC[C@H]2C(=O)OC([C@H](C)C[C@@H]2CC[C@@H](OC(=O)CSC[C@H](NC(=O)CC[C@H](N)C(=O)O)C(=O)NCC(=O)O)[C@H](OC)C2)CC(=O)[C@H](C)/C=C(\C)[C@@H](OC(=O)CSC[C@H](NC(=O)CC[C@H](N)C(=O)O)C(=O)NCC(=O)O)[C@@H](OC)C(=O)[C@H](C)C[C@@H](C)\C=C/C=C/C=C/1C` (stereo partly shown) [Compound I-4]: the “increase of solubility in water as compared with sirolimus” value in series [1] was no less than 610 times. In series [1], this compound showed a solubility of 610 µg/mL (≈ 379 µM). Besides, the IC50 in series [2] is 73.283 ± 0.012 µM; in series [3], 73.402 ± 0.007 µM; in series [4], 122.8 ± 0.017 µM; in series [5], 51.413 ± 0.005 µM; in series [6], 93.277 ± 0.011 µM.
As to `CO[C@H]1C[C@@H]2CC[C@@H](C)[C@@](O)(O2)C(=O)C(=O)N2CCCC[C@H]2C(=O)OC([C@H](C)C[C@@H]2CC[C@@H](OC(=O)C(C)(COC(=O)CSC[C@H](NC(=O)CC[C@H](N)C(=O)O)C(=O)NCC(=O)O)COC(=O)CSC[C@H](NC(=O)CC[C@H](N)C(=O)O)C(=O)NCC(=O)O)[C@H](OC)C2)CC(=O)[C@H](C)/C=C(\C)[C@@H](OC(=O)CSC[C@H](NC(=O)CC[C@H](N)C(=O)O)C(=O)NCC(=O)O)[C@@H](OC)C(=O)[C@H](C)C[C@@H](C)\C=C/C=C/C=C/1C` (stereo partly shown) [Compound I-7], in series [1], the “increase of solubility in water as compared with temsirolimus” value is on record as no less than 830 times. The amount in solution in series [1] (solubility) came to 830 µg/mL (≈ 401 µM). For the same compound, the IC50 in series [2] is 81.31 ± 0.008 µM; in series [3] it was 76.703 ± 0.012 µM; in series [4] it was 131.26 ± 0.01 µM; in series [5], 60.492 ± 0.01 µM; in series [6], 82.51 ± 0.015 µM.
Turning to `CO[C@H]1C[C@@H]2CC[C@@H](C)[C@@](O)(O2)C(=O)C(=O)N2CCCC[C@H]2C(=O)OC([C@H](C)C[C@@H]2CC[C@@H](OC(=O)CSC[C@H](NC(=O)CC[C@H](N)C(=O)O)C(=O)NCC(=O)O)[C@H](OC)C2)CC(=O)[C@H](C)/C=C(\C)[C@@H](O)[C@@H](OC)C(=O)[C@H](C)C[C@@H](C)\C=C/C=C/C=C/1C` (stereo partly shown) [Compound I-3], the “increase of solubility in water as compared with sirolimus” value in series [1] is on record as “at least 470 times”. The concentration in solution in series [1] (solubility) was 470 µg/mL (≈ 373 µM). Further, the IC50 in series [2] was determined as 63.633 ± 0.015 µM; in series [3], 35.188 ± 0.007 µM; in series [4] it was 82.328 ± 0.011 µM; in series [5], 31.396 ± 0.008 µM; in series [6] it was 62.511 ± 0.01 µM.
With `CO[C@H]1C[C@@H]2CC[C@@H](C)[C@@](O)(O2)C(=O)C(=O)N2CCCC[C@H]2C(=O)O[C@H]([C@H](C)C[C@@H]2CC[C@@H](O)[C@H](OC)C2)CC(=O)[C@H](C)/C=C(\C)[C@@H](O)[C@@H](OC)C(=O)[C@H](C)C[C@H](C)/C=C/C=C/C=C/1C` [Sirolimus, reference compound], in series [1], the solubility was less than 1 µg/mL. In addition, the IC50 came out at 68.57 ± 0.007 µM in series [2]; 66.254 ± 0.007 µM in series [3]; 101.36 ± 0.013 µM in series [4]; 42.371 ± 0.009 µM in series [5]; 68.52 ± 0.009 µM in series [6].
Regarding `CO[C@H]1C[C@@H]2CC[C@@H](C)[C@@](O)(O2)C(=O)C(=O)N2CCCC[C@H]2C(=O)O[C@H]([C@H](C)C[C@@H]2CC[C@@H](OC(=O)C(C)(CO)CO)[C@H](OC)C2)CC(=O)[C@H](C)/C=C(\C)[C@@H](O)[C@@H](OC)C(=O)[C@H](C)C[C@H](C)/C=C/C=C/C=C/1C` [Temsirolimus, reference compound], the solubility in series [1] (pure water, Table 2, compounds I-5, I-6, I-7 converted to temsirolimus, read-out: Solubility in water) was roughly 1 µg/mL (≈ 0.971 µM). Besides, the IC50 in series [2] stood at 77.31 ± 0.005 µM; in series [3], 60.337 ± 0.01 µM; in series [4], 113.25 ± 0.011 µM; in series [5] it was 47.319 ± 0.005 µM; in series [6] it was 65.361 ± 0.015 µM.

As a reminder, the solubility is the dissolved amount per volume that the medium holds. For orientation: IC50 means the midpoint of a concentration-inhibition curve.

Values taken from US10442835B2, “Water-soluble rapamycin derivatives” (Zhejiang Hisun Pharmaceutical Co., Ltd., priority 2016, dated 2019).
